Here are results for eleven molecules from patent publication US11001557B2 (priority 2017, dated 2021).

Where two headings read alike, the source gives them in different places. Bounds are passed on as bounds.

One may read the melting point as the temperature of the solid-liquid transition.

The subject of data set [1] is SFTSV. The experiment in a line: microbe, parasite or virus in culture. The class given is cell-based, severe fever with thrombocytopenia syndrome virus (SFTSV). Conditions: for EC50: Severe fever with thrombocytopenia syndrome virus, Vero, 72 h.
A further data set can be described thus: in vitro. Conditions: African green monkey.
Data set [2] deals with SFTSV. Conditions: cited from earlier work.
The subject of the next data set is Vero cells. The conditions noted are these: African green monkey.
Where [3] appears, read: read-out: EC50: 50% effective concentration (concentration of a drug suppressing SFTSV proliferation by 50%).

`CCCCCN(C)Cc1cc(Nc2ccnc3cc(I)ccc23)ccc1O` [Compound 13, 4-(7-iodoquinolin-4-ylamino)-2-methylpentylaminomethylphenol] displayed an EC50 in the data set with SFTSV [1] of 3.4 µM. The molecule also had a CC50 in “in vitro” of more than 50 µM.
For `NC(=O)c1nc(F)c[nH]c1=O` [favipiravir, reference compound], the “anti-SFTSV effect (in words)” value in the data set on SFTSV [1] was “have an anti-SFTSV effect”. In addition, in the data set with SFTSV [2], the “anti-SFTSV effect already reported” value was “already reported to have an anti-SFTSV effect”.
As to `Oc1ccc(Nc2ccnc3cc(Cl)ccc23)cc1CN1CCCC1` [Compound 5, 4-(7-chloroquinolin-4-ylamino)-2-(1-pyrrolidinylmethyl)phenol], in the data set on SFTSV [1] (setting [3]), the EC50 was 14.6 µM. Moreover, in “in vitro”, the CC50 was 41.1 µM.
`CCCCN(C)Cc1cc(Nc2ccnc3cc(I)ccc23)ccc1O` [Compound 12, 4-(7-iodoquinolin-4-ylamino)-2-butylmethylaminomethylphenol] came in with an EC50 with SFTSV [1] of 6.2 µM. The molecule also had a CC50 in the data set “in vitro” of more than 50 µM.
With `NC(=O)c1ncn([C@@H]2O[C@H](CO)[C@@H](O)[C@H]2O)n1` [ribavirin, reference compound], the “anti-SFTSV effect (in words)” value in the data set with SFTSV [1] is reported as “have an anti-SFTSV effect”. Besides, in the data set on SFTSV [2], the “anti-SFTSV effect already reported” value was “already reported to have an anti-SFTSV effect”.
For the molecule `CCCCCCN(C)Cc1cc(Nc2ccnc3cc(I)ccc23)ccc1O` [Compound 14, 4-(7-iodoquinolin-4-ylamino)-2-hexylmethylaminomethylphenol], in the data set with SFTSV [1], the EC50 worked out at 8.7 µM. This molecule registered a CC50 in “in vitro” of more than 50 µM.
As for `CCN(CC)Cc1cc(Nc2ccnc3cc(F)ccc23)ccc1O` [Compound 2, 4-(7-fluoroquinolin-4-ylamino)-2-diethylaminomethylphenol], the CC50 in the data set with Vero cells was more than 100 µM. Further, in the data set on SFTSV [1] (setting [3]), the EC50 came out at 36.6 ± 9.3 µM.
In turn, `CCN(CC)Cc1cc(Nc2ccnc3cc(Br)ccc23)ccc1O` [Compound 3, 4-(7-bromoquinolin-4-ylamino)-2-diethylaminomethylphenol] came in with a melting point of 194.3 to 195.8 °C. This molecule showed a CC50 with Vero cells of more than 100 µM. Also, the EC50 with SFTSV [1] (setting [3]) is 31.1 ± 16.8 µM.
Regarding `CCCN(CCC)Cc1cc(Nc2ccnc3cc(Cl)ccc23)ccc1O` [Compound 6, 4-(7-chloroquinolin-4-ylamino)-2-dipropylaminomethylphenol], the melting point lay within 163.2 to 164.3 °C. In addition, in the data set on SFTSV [1] (setting [3]), the EC50 amounted to 58.7 µM. In the data set “in vitro”, the CC50 is more than 100 µM.
On to `CCN(CC)Cc1cc(Nc2ccnc3cc(Cl)ccc23)ccc1O` [Compound 1, Amodiaquine, reference compound], for which the CC50 in the data set with Vero cells was more than 100 µM. The “anti-SFTSV effect (in words)” value in the data set with SFTSV [1] is “have an anti-SFTSV effect”. The EC50 with SFTSV [1] (setting [3]) turned out to be 19.1 ± 5.1 µM.
Regarding `CCN(CC)Cc1cc(Nc2ccnc3cc(I)ccc23)ccc1O` [Compound 4, 4-(7-iodoquinolin-4-ylamino)-2-diethylaminomethylphenol], the melting point was 189.7 to 190.4 °C. Moreover, the CC50 with Vero cells is more than 100 µM. Besides, in the data set on SFTSV [1] (setting [3]), the EC50 was determined as 15.6 ± 4.9 µM.
